Experimental data taken from patent publication US9771343B2, “2-alkyl-or-aryl-substituted tanshinone derivatives, and preparation method and application thereof” (Hangzhou Bensheng Pharmaceutical Co., Ltd., priority 2011, dated 2017).
≈ marks a conversion by molar mass, not a printed value.

Assays:
[1] = tested on: K562/adr (drug-resistant, chronic myeloid leukemia, CML); test: MTT cell growth inhibition, K562/adr leukemia cells, 72 h; type: cell-based; settings: Homo sapiens, K562/Adr
Procedure: (§1) The standard sample of tanshinone I (TA) and the 2-alkyl- or 2-aromatic-substituted tanshinone I derivatives of the present invention are sufficiently dissolved in dimethylsulfoxide to produce a stock solution of 10 mg/mL, which is refrigerated at 4° C. and stored in dark, and is diluted with cell culture medium to a desired concentration prior to experimentation.
(§2) Obtaining 6000 well-growing leukemia cells and inoculating them into wells of a 96-well cell culture plate. The culture medium is the RPMI-1640 cell culture medium containing 10% fetal bovine serum. After adding on the second day the 2-alkyl- or 2-aromatic-substituted tanshinone I derivatives of different concentrations and mixing uniformly, placing the plate in a carbon dioxide cell incubator (5% CO2) at 37° C. and incubated for 72 hours. Then the viable cell concentration is determined by MTT method. In this experiment, the cell viability in control group (not treated with any compound) is set as 100%, and the cell viability (%) after treatment by the compounds and the half maximum inhibitory concentration for the leukemia cell at 72 hours (IC50 value of 72 hours, μg/mL) are calculated.

[2] = tested on: Kasumi-1 (acute myeloid leukemia M2 type, AML-M2); test: MTT cell growth inhibition, Kasumi-1 leukemia cells, 72 h; type: cell-based; settings: Homo sapiens, Kasumi-1, 72 h
Procedure: as §1, §2

[3] = tested on: NB4 (acute promyelocytic leukemia, AML); test: MTT cell growth inhibition, NB4 leukemia cells, 72 h; type: cell-based; settings: NB4, 72 h
Procedure: as §1, §2

[4] = tested on: Jurkat (acute lymphoblastic leukemia, ALL); test: MTT cell growth inhibition, Jurkat leukemia cells, 72 h; type: cell-based
Procedure: as §1, §2

[5] = tested on: H9 (acute lymphoblastic leukemia, ALL); test: MTT cell growth inhibition, H9 leukemia cells, 72 h; type: cell-based; settings: H9, 72 h
Procedure: as §1, §2

[6] = tested on: RPMI8226 (multiple myeloma); test: MTT cell growth inhibition, RPMI8226 multiple myeloma cells, 72 h; type: cell-based, human
Procedure: as §1, §2

[7] = tested on: A549 (human lung cancer); test: MTT cell growth inhibition, A549 cells, 72 h; type: cell-based; settings: Homo sapiens, A549, 72 h
Procedure: (§3) The standard sample of tanshinone I (TA) and the 2-alkyl- or 2-aromatic-substituted tanshinone I derivatives of the present invention are sufficiently dissolved in dimethylsulfoxide to produce a stock solution of 10 mg/mL, which is refrigerated at 4° C. and stored in dark, and is diluted with a cell culture medium to the desired concentration prior to experimentation.
(§4) Obtaining 6000 well-growing human solid tumor cells and inoculating them into wells of a 96-well cell culture plate. The culture medium is DMEM High Glucose cell culture medium containing 10% fetal bovine serum. The plate is placed in a carbon dioxide cell incubator (5% CO2) at 37° C. and incubated for 24 hours. After adding the 2-alkyl- or 2-aromatic-substituted tanshinone I derivatives of different concentrations and mixing uniformly, the plate is placed in a carbon dioxide cell incubator (5% CO2) at 37° C. and incubated for 72 hours. Then the viable cell concentration is determined by MTT method. In this experiment, the cell viability in control group (not treated with any compound) is set as 100%, and the cell viability (%) after treatment by the compounds and the half maximum inhibitory concentration for the leukemia cell at 72 hours (IC50 value of 72 hours, μg/mL) are calculated.

[8] = tested on: PANC-1 (pancreatic cancer); test: MTT cell growth inhibition, PANC-1 cells, 72 h; type: cell-based, human; settings: Homo sapiens, PANC-1, 72 h
Procedure: as §3, §4

[9] = tested on: Becap37 (human breast cancer cell); test: MTT cell growth inhibition, Becap37 cells, 72 h; type: cell-based
Procedure: as §3, §4

[10] = tested on: MG63 (osteosarcoma); test: MTT cell growth inhibition, MG63 cells, 72 h; type: cell-based, human; settings: Homo sapiens, MG-63, 72 h
Procedure: as §3, §4

[11] = tested on: Hep G2 (human liver cancer cell); test: MTT cell growth inhibition, Hep G2 cells, 72 h; type: cell-based
Procedure: as §3, §4

[12] = tested on: RKO (human colon adenocarcinoma cell); test: MTT cell growth inhibition, RKO cells, 72 h; type: cell-based
Procedure: as §3, §4

[13] = tested on: U87 MG (malignant glioma cell); test: MTT cell growth inhibition, U87 MG cells, 72 h; type: cell-based, human
Procedure: as §3, §4

[14] = tested on: Hela (human cervical cancer cell); test: MTT cell growth inhibition, Hela cells, 72 h; type: cell-based
Procedure: as §3, §4

[15] = tested on: CaES-17 (esophageal cancer cell); test: MTT cell growth inhibition, CaES-17 cells, 72 h; type: cell-based, human; settings: Homo sapiens, CaEs17, CaEs-17, 72 h
Procedure: as §3, §4

[16] = tested on: CNE (nasopharyngeal carcinoma cell); test: MTT cell growth inhibition, CNE cells, 72 h; type: cell-based, human
Procedure: as §3, §4

[17] = tested on: Hep-2 (laryngeal carcinoma); test: MTT cell growth inhibition, Hep-2 cells, 72 h; type: cell-based, human; settings: Homo sapiens, HEp-2, 72 h
Procedure: as §3, §4

[18] = tested on: MGC 803 (human gastric cancer cell); test: MTT cell growth inhibition, MGC 803 cells, 72 h; type: cell-based; settings: Homo sapiens, MGC-803, 72 h
Procedure: as §3, §4

[19] = tested on: PC-3 (prostate cancer); test: MTT cell growth inhibition, PC-3 cells, 72 h; type: cell-based, human; settings: Homo sapiens, PC-3, 72 h
Procedure: as §3, §4

[20] = tested on: SK-OV-3 (ovarian cancer cell); test: MTT cell growth inhibition, SK-OV-3 cells, 72 h; type: cell-based, human
Procedure: as §3, §4

## Cc1c(-c2ccc(OCC(O)CO)cc2)oc2c1C(=O)C(=O)c1c-2ccc2c(C)cccc12 (stereo not shown) [BS-TA-301]
[1]; read-out: IC50
  IC50: 1.36 µg/mL (≈ 3.07 µM)
[1]; read-out: IC90
  IC90: 7.61 µg/mL (≈ 17.2 µM)
[2]; read-out: IC50
  IC50: 0.97 µg/mL (≈ 2.19 µM)
[2]; read-out: IC90
  IC90: 31.1 µg/mL (≈ 70.3 µM)
[3]; read-out: IC50
  IC50: 0.31 µg/mL (≈ 0.701 µM)
[3]; read-out: IC90
  IC90: 3.22 µg/mL (≈ 7.28 µM)
[4]; Homo sapiens, 72 h, read-out: IC50
  IC50: 0.48 µg/mL (≈ 1.08 µM)
[4]; Homo sapiens, 72 h, read-out: IC90
  IC90: > 16 µg/mL
[4]; vs tanshinone I
  improvement of anti-Jurkat activity as compared with tanshinone I per se: more than 3 fold
[5]; read-out: IC50
  IC50: 3 µg/mL (≈ 6.78 µM)
[5]; read-out: IC90
  IC90: > 16 µg/mL
[6]; Homo sapiens, RPMI 8226, 72 h, read-out: IC50
  IC50: 0.58 µg/mL (≈ 1.31 µM)
[6]; Homo sapiens, RPMI 8226, 72 h, read-out: IC90
  IC90: 16.2 µg/mL (≈ 36.6 µM)
[6]; as compared with tanshinone I per se
  anti-RPMI8226 cell line activity (in words): improves the anti-RPMI8226 cell line activity significantly
[7]; read-out: IC50
  IC50: 6.68 µg/mL (≈ 15.1 µM)
[7]; read-out: IC90
  IC90: 25.9 µg/mL (≈ 58.5 µM)
[8]; read-out: IC50
  IC50: 7.34 µg/mL (≈ 16.6 µM)
[8]; read-out: IC90
  IC90: 24.1 µg/mL (≈ 54.5 µM)
[9]; Homo sapiens, Becap-37, 72 h, read-out: IC50
  IC50: 1.99 µg/mL (≈ 4.5 µM)
[9]; Homo sapiens, Becap-37, 72 h, read-out: IC90
  IC90: 7.83 µg/mL (≈ 17.7 µM)
[9]; Table 2
  anti-Becap37 activity (in words): superior to that of tanshinone I per se
[10]; read-out: IC50
  IC50: 1.62 µg/mL (≈ 3.66 µM)
[10]; read-out: IC90
  IC90: 7.44 µg/mL (≈ 16.8 µM)
[11]; Homo sapiens, HepG2, Hep G2, 72 h, read-out: IC50
  IC50: 2.09 µg/mL (≈ 4.72 µM)
[11]; Homo sapiens, HepG2, Hep G2, 72 h, read-out: IC90
  IC90: 16.3 µg/mL (≈ 36.9 µM)
[11]; Table 2
  anti-Hep G2 activity (in words): superior to that of tanshinone I per se
[12]; Homo sapiens, RKO, 72 h, read-out: IC50
  IC50: 0.87 µg/mL (≈ 1.97 µM)
[12]; Homo sapiens, RKO, 72 h, read-out: IC90
  IC90: 26.6 µg/mL (≈ 60 µM)
[12]; Table 2
  anti-RKO activity (in words): superior to that of tanshinone I per se
[13]; Homo sapiens, U-87 MG, U87-MG, 72 h, read-out: IC50
  IC50: 2.85 µg/mL (≈ 6.44 µM)
[13]; Homo sapiens, U-87 MG, U87-MG, 72 h, read-out: IC90
  IC90: 15.4 µg/mL (≈ 34.9 µM)
[13]; Table 2
  anti-U87 MG activity (in words): superior to that of tanshinone I per se
[14]; Homo sapiens, HeLa, 72 h, read-out: IC50
  IC50: 1.07 µg/mL (≈ 2.42 µM)
[14]; Homo sapiens, HeLa, 72 h, read-out: IC90
  IC90: 24 µg/mL (≈ 54.3 µM)
[14]; Table 2
  anti-Hela activity (in words): superior to that of tanshinone I per se
[15]; read-out: IC50
  IC50: 3.78 µg/mL (≈ 8.54 µM)
[15]; read-out: IC90
  IC90: > 16 µg/mL
[16]; Homo sapiens, CNE, 72 h, read-out: IC50
  IC50: 3.2 µg/mL (≈ 7.23 µM)
[16]; Homo sapiens, CNE, 72 h, read-out: IC90
  IC90: 45 µg/mL (≈ 102 µM)
[16]; Table 2
  anti-CNE activity (in words): good antitumor activity
[17]; read-out: IC50
  IC50: 5.27 µg/mL (≈ 11.9 µM)
[17]; read-out: IC90
  IC90: > 16 µg/mL
[18]; read-out: IC50
  IC50: 1.74 µg/mL (≈ 3.93 µM)
[18]; read-out: IC90
  IC90: 16 µg/mL (≈ 36.2 µM)
[19]; read-out: IC50
  IC50: 9.94 µg/mL (≈ 22.5 µM)
[19]; read-out: IC90
  IC90: > 16 µg/mL
[20]; Homo sapiens, SK-OV-3, 72 h, read-out: IC50
  IC50: 11.7 µg/mL (≈ 26.5 µM)
[20]; Homo sapiens, SK-OV-3, 72 h, read-out: IC90
  IC90: > 16 µg/mL
[20]; Table 2
  anti-SK-OV-3 activity (in words): superior to that of tanshinone I per se
